The text below walks through data of ChEMBL document CHEMBL1153126, “Substituted tetrahydro-beta-carbolines as potential agents for the treatment of human papillomavirus infection” (Bioorg Med Chem Lett, 2010).

The nature of data set [1]: Cytotoxicity against HFF cells. To be noted: human. Format: cell-based.
The test system of data set [2] is Human papillomavirus type 16. Nature of the data set: Antiviral activity against Human papillomavirus - 16 infected in human W12-20850 cells by hybrid capture method. Format: functional, organism-based. The settings on record: Human papillomavirus 16, W12-20850.
Data set [3] is described as follows: Therapeutic index, CC50 for HFF cells to IC50 for Human papillomavirus - 16. Format: cell-based. To be noted: read-out: TI.
Data set [4] is described as follows: Clearance in rat at 1 mg/kg, iv. The class given is ADME, organism-based. More on the design: dose 1 mg/kg, route intravenous. The settings on record: in vivo.
Data set [5] is described as follows: Half life in rat at 1 mg/kg, iv. The class given is ADME, organism-based. More on the design: dose 1 mg/kg, route intravenous. The settings on record: in vivo.
Data set [6] can be described thus: Oral bioavailability in mouse at 5 mg/kg. The class given is ADME, organism-based. The settings on record: in vivo.

As a reminder, the CC50 is the concentration that lowers cell viability or growth by half. High values mean lower toxicity to the cells, low ones greater toxicity to the cells. As a reminder, the IC50 is the concentration that inhibits the measured activity by half. Lower therefore signals higher potency. For the molecule `CC(C)C[C@H]1c2[nH]c3ccc(Cl)cc3c2CCN1C(=O)CCc1ccccc1`, the CC50 in data set [1] is over 100 µM. The same molecule returned an IC50 in data set [2] of 0.018 µM.
Molecule `CC(C)CC1c2[nH]c3ccccc3c2CCN1C(=O)CCc1ccccc1` (stereo unspecified) yielded a half-maximal cytotoxic concentration (CC50) in data set [1] of 22 µM. Besides, the midpoint of inhibition in data set [2], the IC50, lay at 0.33 µM.
On the same counts, the results for `O=C(CCc1ccccc1)N1CCc2c([nH]c3ccccc23)C1c1ccccc1` (stereo unspecified) are over 100 µM and 1.2 µM.
On the same counts, the results for `Cc1ccc([C@@H]2c3[nH]c4ccc(Cl)cc4c3CCN2C(=O)CCc2ccccc2)cc1` are over 100 µM and 7.7 µM.
The like results for `O=C(CCc1ccccc1)N1CCc2c([nH]c3ccccc23)C1CCc1ccccc1` (stereo unspecified) were, in that order, over 100 µM and 2.7 µM.
On to `O=C(CCc1ccccc1)N1CCc2c([nH]c3ccccc23)C1CN1CCCC1` (stereo unspecified), for which, in data set [1], the midpoint of cytotoxicity, the CC50, lay at 16 µM.
As for `O=C(CCc1ccccc1)N1CCc2c([nH]c3ccccc23)C1COCc1ccccc1` (stereo unspecified), the CC50 in data set [1] is over 100 µM. Moreover, it took 7.3 µM to reach half-maximal inhibition in data set [2] (IC50).
On the same counts, the results for `O=C(OCC1c2[nH]c3ccccc3c2CCN1C(=O)CCc1ccccc1)N1CCCC1` (stereo unspecified) are over 100 µM and over 100 µM.
`Cc1ccc(C2c3[nH]c4c(C)cccc4c3CCN2C(=O)CCc2ccccc2)cc1` (stereo unspecified) registered a CC50 in data set [1] of over 100 µM. In data set [3], the selectivity ratio is over 100. This molecule also yielded an IC50 in data set [2] of 2.2 µM.
`Cc1ccc(C2c3[nH]c4ccccc4c3CCN2C(=O)Oc2cccc3ccccc23)cc1` (stereo unspecified) gave a CC50 in data set [1] of over 100 µM. For the same molecule, in data set [2], the concentration for half-maximal inhibition (IC50) is 23 µM.
In data set [1], `Cc1ccc(C2c3[nH]c4ccccc4c3CCN2S(C)(=O)=O)cc1` (stereo unspecified) returned a CC50 of over 100 µM. In data set [2], it took 23 µM to reach half-maximal inhibition (IC50).
Regarding `Cc1ccc(C2c3[nH]c4ccc(F)cc4c3CCN2C(=O)CCc2ccccc2)cc1` (stereo unspecified), in data set [1], the CC50 is over 100 µM. Also, the selectivity ratio in data set [3] was over 100. The same molecule gave an IC50 in data set [2] of 0.44 µM.
Turning to `Cc1ccc(C2c3[nH]c4ccccc4c3CCN2C(=O)CCc2ccccc2)cc1` (stereo unspecified), in data set [1], the CC50 was over 100 µM. The selectivity ratio in data set [3] amounted to 100. Further, the concentration for half-maximal inhibition (IC50) in data set [2] worked out at 1.3 µM.
As to `O=C(CCc1ccccc1)N1CCc2c([nH]c3ccccc23)C1COc1ccccc1` (stereo unspecified), the half-maximal cytotoxic concentration (CC50) in data set [1] is over 100 µM. In data set [2], this molecule came in with an IC50 of 72 µM.
The like results for `Cc1ccc(C2c3[nH]c4ccccc4c3CCN2C(=O)C#Cc2ccccc2)cc1` (stereo unspecified) were, in that order, over 100 µM and 20 µM.
Turning to `O=C(C1c2[nH]c3ccccc3c2CCN1C(=O)CCc1ccccc1)N1CCCC1` (stereo unspecified), in data set [1], the CC50 is over 100 µM. In data set [2], this molecule displayed an IC50 of over 100 µM.
Consider `COc1ccc2[nH]c3c(c2c1)CCN(C(=O)CCc1ccccc1)C3c1ccc(C)cc1` (stereo unspecified), for which the CC50 in data set [1] was over 100 µM. Besides, in data set [3], the selectivity ratio was over 100. Further, inhibition in data set [2] was half-maximal at 0.57 µM (IC50).
`COC(=O)N1CCc2c([nH]c3ccccc23)C1c1ccc(C)cc1` (stereo unspecified): in data set [1], the CC50 was 31 µM. Also, in data set [2], 1.7 µM corresponded to half-maximal inhibition (IC50).
The like results for `Cc1ccc(C2c3[nH]c4ccccc4c3CCN2CC(C)C)cc1` (stereo unspecified) were, in that order, 50 µM and 25 µM.
The like results for `Cc1ccc(C2c3[nH]c4ccccc4c3CCN2C(=O)OCc2ccccc2)cc1` (stereo unspecified) were, in that order, over 100 µM and 0.9 µM.
On the same counts, the results for `Cc1ccc(C2c3[nH]c4ccccc4c3CCN2C(=O)CCN(C)C)cc1` (stereo unspecified) are 40 µM and 15 µM.
As for `COc1ccc(S(=O)(=O)N2CCc3c([nH]c4ccccc34)C2c2ccc(C)cc2)cc1` (stereo unspecified), in data set [1], the half-maximal cytotoxic concentration (CC50) is over 100 µM. Further, half-maximal inhibition in data set [2] (IC50) required 66 µM.
In data set [1], `Cc1ccc(C2c3[nH]c4cc(F)ccc4c3CCN2C(=O)CCc2ccccc2)cc1` (stereo unspecified) yielded a CC50 of over 100 µM. Further, in data set [3], the selectivity ratio was over 100. In data set [2], this molecule returned an IC50 of 1.7 µM.
Regarding `O=C(CCc1ccccc1)N1CCc2c([nH]c3ccccc23)C1c1cccnc1` (stereo unspecified), in data set [1], the CC50 was over 100 µM. This molecule also returned an IC50 in data set [2] of over 100 µM.
`COC(=O)C1c2[nH]c3ccccc3c2CCN1C(=O)CCc1ccccc1` (stereo unspecified) gave a CC50 in data set [1] of over 100 µM. The molecule also had an IC50 in data set [2] of 20 µM.
On the same counts, the results for `Cc1ccc(C2c3[nH]c4ccccc4c3CCN2C(=O)/C=C/c2ccccc2)cc1` (stereo unspecified) are over 100 µM and 2.3 µM.
Molecule `Cc1ccc(C2c3[nH]c4ccc(Cl)cc4c3CCN2C(=O)CCc2ccccc2)cc1` (stereo unspecified) registered a CC50 in data set [1] of over 100 µM. The selectivity ratio in data set [3] was over 100. The molecule also returned a concentration for half-maximal inhibition (IC50) in data set [2] of 0.062 µM.
A word on the clearance: it is the volume of plasma or blood freed of the substance per unit of time. Read a high clearance as efficient removal. In general, half-life refers to the time in which the quantity being followed falls by half. The low end stands for fast loss, the high end for slow loss. What is called bioavailability is the share of a dose that reaches the circulation, judged against a reference dose that is usually intravenous. Higher therefore signals good availability. In turn, `Cc1ccc([C@H]2c3[nH]c4ccc(Cl)cc4c3CCN2C(=O)CCc2ccccc2)cc1` had a clearance in data set [4] of 3.6 mL/min/kg. For the same molecule, the cytotoxic concentration (CC50) in data set [1] is over 100 µM. The molecule further showed a half-life in data set [5] of 6.2 h. In addition, the IC50 in data set [2] came out at 0.023 µM. This molecule returned a bioavailability in data set [6] of 73%.
The molecule `Cc1ccc(C2c3[nH]c4ccccc4c3CCN2Cc2ccccc2)cc1` (stereo unspecified) returned a CC50 in data set [1] of 94 µM. For the same molecule, it took 5.8 µM to reach half-maximal inhibition in data set [2] (IC50).
`Cc1ccc(C2c3[nH]c4ccccc4c3CCN2C(=O)CCc2cccnc2)cc1` (stereo unspecified): the CC50 in data set [1] is 94 µM. The same molecule gave an IC50 in data set [2] of 18 µM.
Turning to `COc1ccc2c3c([nH]c2c1)C(c1ccc(C)cc1)N(C(=O)CCc1ccccc1)CC3` (stereo unspecified), the CC50 in data set [1] is over 100 µM. Further, the selectivity ratio in data set [3] is over 100. Moreover, in data set [2], the IC50 came out at 5.8 µM.
On to `Cc1ccc(C2c3[nH]c4ccc(C)cc4c3CCN2C(=O)CCc2ccccc2)cc1` (stereo unspecified), for which the CC50 in data set [1] was over 100 µM. Also, the selectivity ratio in data set [3] is over 100. Further, in data set [2], inhibition was half-maximal at 0.35 µM (IC50).
`CC(C)C[C@@H]1c2[nH]c3ccc(Cl)cc3c2CCN1C(=O)CCc1ccccc1` had a CC50 in data set [1] of over 100 µM. This molecule had an IC50 in data set [2] of 0.88 µM.
